# Assay results: US8492385B2, “Crystalline modifications of N-alpha-(2,4,6-triisopropylphenylsulfonyl)-3-hydroxyamidino- (L)- phenylalanine 4-ethoxycarbonylpiperazide and/or salts thereof” (Wilex AG, priority 2004, dated 2013)
# How the values were obtained:
# Assay type in all cases: physicochemical
# [1] = Investigation of the crystallinity by X-ray diffractometry; conditions: salts suspended 7 days in a suitable solvent, filtered, dried at room temperature
# Excerpt: In a second step, the salts were suspended for 7 days in a suitable solvent, filtered and dried at room temperature.
# Processes: X-ray diffractometry (XRD); microscopy
# [2] = Thermomicroscopy of WX-671.1
# Experimental: Thermomicroscopic recordings of a sample of WX-671.1 were made (not shown). Agglomerates were observed which show no specific habit. The active compound decomposes with bubble formation from about 197° C. Differences to the decomposition temperature observed in the DSC calorimeter come about due to the different heating rates. WX-671.1 is obtained in nonspecific form from solvents.
# [3] = Investigation of the hygroscopicity (storage at 85% relative humidity, TGA); conditions: storage for 1 week/85% relative humidity
# [4] = Polymorphism screening / stability of the solid form (stirring in solvents, mechanical stress)
# [5] = DSC and TGA thermograms of WX-671.1 (hydrogensulfate salt)
# Experimental: In this example, thermograms were plotted by differential scanning calorimetry (DSC) and thermo-gravimetry (TGA). […] It decomposes from about 180° C. (exothermic peak in the DSC thermogram, mass loss in the TGA thermogram in the corresponding temperature range). The decomposition temperatures are strongly heating rate-dependent and were determined in the DSC calorimeter at a heating rate of 2 Kmin^−1. The DSC table measurements shown were recorded at a heating rate of […] is correspondingly recorded at higher temperatures.
molecule,measurement,setting,value
"CCOC(=O)N1CCN(C(=O)[C@H](Cc2cccc(C(N)=NO)c2)NS(=O)(=O)c2c(C(C)C)cc(C(C)C)cc2C(C)C)CC1 [WX-671.1, N-α-(2,4,6-triisopropylphenylsulfonyl)-3-hydroxyamidino-(L)-phenylalanine 4-ethoxycarbonylpiperazide]",XRD (crystallinity),[1],liquid crystalline
same,"decomposition with bubble formation, temperature",[2],about 197 °C
same,TGA (hygroscopicity),[3],0.8%
same,"TGA, kind of water uptake",[3],(adsorptive)
same,change of form on stirring in water:ethanol (1:1),[4]; mesophase B,does not change
same,change of form due to mechanical stress,"[4]; mesophase B, grinding in a mortar, compressing at 9 kbar",does not alter
same,change of form on stirring in isopropanol,"[4]; mesophase B, room temperature, one week",changes into modification A
same,decomposition temperature,[5]; mesophase B,about 185 °C
same,mass loss (TGA),"[5]; mesophase C, up to 175° C.",4.5%
same,mass loss (TGA),"[5]; modification A, at 150° C.",no significant mass loss
"CCOC(=O)N1CCN(C(=O)[C@H](Cc2cccc(C(N)=NO)c2)NS(=O)(=O)c2c(C(C)C)cc(C(C)C)cc2C(C)C)CC1.O=S(=O)(O)O [WX-671.2, N-α-(2,4,6-triisopropylphenyl-sulfonyl)-3-hydroxyamidino-(L)-phenylalanine 4-ethoxy-carbonylpiperazide sulfate]",thermodynamic stability of the form,[4],thermodynamically stable compound
Hydrochloride,XRD (crystallinity),[1],completely amorphous
same,TGA (hygroscopicity),[3],7.5%
same,"TGA, kind of water uptake",[3],(adsorptive)
Tartrate,XRD (crystallinity),[1],completely amorphous
same,TGA (hygroscopicity),[3],10.5%
same,"TGA, kind of water uptake",[3],(adsorptive)
